Assay results as given in the NIST ThermoML archive (doi:10.1021/je400055v).

Test: xn = mol fraction of the nth substance listed
Settings: Liquid, Vibrating tube method

CCCCCCCCCCC [undecane] + CCCCCCC
Settings	mass density [kg/m3]
343.03 K, 20000 kPa, x2 = 0.7482	682.7
343.03 K, 21000 kPa, x2 = 0.7482	683.6
343.03 K, 22000 kPa, x2 = 0.7482	684.5
343.03 K, 23000 kPa, x2 = 0.7482	685.4
343.03 K, 24000 kPa, x2 = 0.7482	686.2
343.03 K, 25000 kPa, x2 = 0.7482	687.1
343.06 K, 1010 kPa, x2 = 0.2346	693.6
343.06 K, 2010 kPa, x2 = 0.2346	694.6
343.06 K, 3010 kPa, x2 = 0.2346	695.7
343.06 K, 4011 kPa, x2 = 0.2346	696.7
343.06 K, 5011 kPa, x2 = 0.2346	697.7
343.06 K, 6011 kPa, x2 = 0.2346	698.7
343.06 K, 7012 kPa, x2 = 0.2346	699.7
343.06 K, 8012 kPa, x2 = 0.2346	700.6
343.06 K, 9012 kPa, x2 = 0.2346	701.6
343.06 K, 10013 kPa, x2 = 0.2346	702.5
343.06 K, 11013 kPa, x2 = 0.2346	703.5
343.06 K, 12014 kPa, x2 = 0.2346	704.4
343.06 K, 13014 kPa, x2 = 0.2346	705.3
343.06 K, 14014 kPa, x2 = 0.2346	706.2
343.06 K, 15015 kPa, x2 = 0.2346	707
343.06 K, 16016 kPa, x2 = 0.2346	707.9
343.06 K, 17016 kPa, x2 = 0.2346	708.8
343.06 K, 18017 kPa, x2 = 0.2346	709.6
343.06 K, 19017 kPa, x2 = 0.2346	710.4
343.06 K, 20018 kPa, x2 = 0.2346	711.3
343.06 K, 21051 kPa, x2 = 0.2346	712.1
343.06 K, 22053 kPa, x2 = 0.2346	712.9
343.06 K, 23055 kPa, x2 = 0.2346	713.7
343.06 K, 24057 kPa, x2 = 0.2346	714.5
343.06 K, 25059 kPa, x2 = 0.2346	715.2
352.9 K, 1001 kPa, x2 = 0.9511	636.9
352.9 K, 2000 kPa, x2 = 0.9511	638.4
352.9 K, 3000 kPa, x2 = 0.9511	639.8
352.9 K, 4000 kPa, x2 = 0.9511	641.1
352.9 K, 5000 kPa, x2 = 0.9511	642.5
352.9 K, 6000 kPa, x2 = 0.9511	643.8
352.9 K, 7000 kPa, x2 = 0.9511	645.1
352.9 K, 8000 kPa, x2 = 0.9511	646.4
352.9 K, 9000 kPa, x2 = 0.9511	647.7
352.9 K, 10000 kPa, x2 = 0.9511	648.9
352.9 K, 11000 kPa, x2 = 0.9511	650.1
352.9 K, 12000 kPa, x2 = 0.9511	651.3
352.9 K, 13000 kPa, x2 = 0.9511	652.5
352.9 K, 14001 kPa, x2 = 0.9511	653.6
352.9 K, 15001 kPa, x2 = 0.9511	654.8
352.9 K, 16000 kPa, x2 = 0.9511	655.9
352.9 K, 17001 kPa, x2 = 0.9511	657
352.9 K, 18001 kPa, x2 = 0.9511	658
352.9 K, 19000 kPa, x2 = 0.9511	659.1
352.9 K, 20000 kPa, x2 = 0.9511	660.1
352.9 K, 21001 kPa, x2 = 0.9511	661.2
352.9 K, 22000 kPa, x2 = 0.9511	662.2
352.9 K, 23001 kPa, x2 = 0.9511	663.2
352.9 K, 24000 kPa, x2 = 0.9511	664.1
352.9 K, 25000 kPa, x2 = 0.9511	665.1
352.96 K, 1001 kPa, x2 = 0.05	694
352.96 K, 2001 kPa, x2 = 0.05	695.1
352.96 K, 2001 kPa, x2 = 0.5063	672.2
352.96 K, 3000 kPa, x2 = 0.05	696.1
352.96 K, 3000 kPa, x2 = 0.5063	673.4
352.96 K, 4000 kPa, x2 = 0.05	697.2
352.96 K, 4000 kPa, x2 = 0.5063	674.6
352.96 K, 5000 kPa, x2 = 0.05	698.2
352.96 K, 5000 kPa, x2 = 0.5063	675.7
352.96 K, 6000 kPa, x2 = 0.05	699.2
352.96 K, 6000 kPa, x2 = 0.5063	676.8
352.96 K, 7000 kPa, x2 = 0.05	700.2
352.96 K, 7000 kPa, x2 = 0.5063	677.9
352.96 K, 8001 kPa, x2 = 0.05	701.2
352.96 K, 8001 kPa, x2 = 0.5063	679
352.96 K, 9000 kPa, x2 = 0.05	702.2
352.96 K, 9000 kPa, x2 = 0.5063	680.1
352.96 K, 10000 kPa, x2 = 0.05	703.2
352.96 K, 10000 kPa, x2 = 0.5063	681.2
352.96 K, 11000 kPa, x2 = 0.05	704.1
352.96 K, 11000 kPa, x2 = 0.5063	682.2
352.96 K, 12000 kPa, x2 = 0.05	705.1
352.96 K, 12000 kPa, x2 = 0.5063	683.2
352.96 K, 13000 kPa, x2 = 0.05	706
352.96 K, 13000 kPa, x2 = 0.5063	684.2
352.96 K, 14000 kPa, x2 = 0.05	706.9
352.96 K, 14000 kPa, x2 = 0.5063	685.2
352.96 K, 15000 kPa, x2 = 0.05	707.8
352.96 K, 15000 kPa, x2 = 0.5063	686.2
352.96 K, 16000 kPa, x2 = 0.05	708.7
352.96 K, 16000 kPa, x2 = 0.5063	687.2
352.96 K, 17000 kPa, x2 = 0.05	709.6
352.96 K, 17001 kPa, x2 = 0.5063	688.1
352.96 K, 18000 kPa, x2 = 0.05	710.4
352.96 K, 18000 kPa, x2 = 0.5063	689.1
352.96 K, 19000 kPa, x2 = 0.05	711.3
352.96 K, 19000 kPa, x2 = 0.5063	690
